Measurements published in patent publication US20160089410A1, “COMPOSITION FOR NOURISHING INJURED HUMAN TROPHOBLAST CELLS AND INHIBITING APOPTOSIS THEREIN” (priority 2014, published 2016).
Marks after values point to notes of the source that are not given here.

Assays:
Assay type in all cases: cell-based, human
trophoblast cells [1] = assay: Annexin V/PI flow cytometry assay on early stage apoptosis in Mifepristone-Trophoblast Cell Model; details: comparative study, mifepristone induced model
Method: For example, the effect of apoptotic mRNA expressions in trophoblastic cells treated by mifepristone for 24 hours is shown in FIG. 3.
The experimental data on the cell proliferation rate, early apoptosis rate, Caspase-3 protein expression and cell supernatants HCG level expression were then subject to stepwise regression analysis, canonical correlation analysis and result optimization analysis. From these analyses, it is concluded that the preferred ratio among X1:X2:X3:X4:X5 is 0.9:0.00342:0.09037:0.0795:0. […] The number means the percentage of the cells underwent apoptosis.
(§1) Hyperoside and asperosaponin are individual compounds isolated from herbal medicines cuscuta chinensis and taxillus sutchuenensis, respectively. Progesterone is a compound often used to prevent spontaneous abortion and was used in present invention as positive treatment control for comparison with of the novel composition of the present invention.
The cells 4×10^5 cells/ml were seeded in the 6-well plate, 1 ml per well and incubated at 37° C., 5% CO2 for 48 h. Then, the cells were grouped and treated accordingly (see above). The assays were conducted as follows:
At the end of the predetermined treatment, the cells were digested and spun down(2000 rpm×5 min centrifugation). Discard the medium, wash the cells twice with cold PBS (resuspension and then 2000 rpm×5 min centrifugation). Remove the supernatant and resuspend the cell in 400 μl 1×Annexin V binding solution. Then, add 5 μl AnnexinV-EGFP staining solution to the cell suspension and mix gently. Incubate the cells at 2-8° C. in dark for 15 minutes. Add 10 μl PI (propidium iodide) and mix gently and incubate the cells in dark at 2-8° C. for 5 min. Detection by flow cytometry was conducted within one hour. The detection was repeated three times.

trophoblast cells [2] = assay: MTT assay on cell proliferation in mifepristone induced trophoblast model; details: Blank = 1.0000
Method: as §1
The trophoblast cells (adjust to 1.5×10^4/ml) were seeded in wells on a 96-well plate, […]. After incubating for 48 hours at 37° C., 5% CO2, the cells were grouped and treated accordingly (see above). Assays were conducted after treatment for 24 h and 48 h according to the following procedure:
Add 10 μl 1×MTT (3-(4,5-dimethylthiazol-2-yl)-2,5-diphenyltetrazolium bromide) to the well and continue incubation at 37° C., 5% CO2 for 4 hours to reduce MTT to formazan. Remove the supernatant from the well and add to each well 150 μl DMSO (dimethylsulfoxide) to dissolve formazan. After shaking the 96 plate for 10 min to make crystals completely dissolved, determine the OD value at 490 nm with a enzyme immunoassay analyzer. The determination was repeated three times.

β-HCG = assay: Radioimmunoassay on HCG expression in cell supernatant; details: mifepristone induced model; duration of treatment 48 h
Method: as §1
The cells (4×10^5 cells/ml) were seeded in the 6-well plate, 1 ml per well, and incubated at 37° C., 5% CO2 for 48 hours. Then, the cells were grouped and treated accordingly (see above). After 48 hour treatment, cell supernatants were collected and sent to the Department of Nuclear Medicine, Guangzhou University of Traditional Chinese Medicine, for measuring HCG (human chorionic gonadotropin) via a routine radioimmunoassay procedure.

Caspase-3 = assay: Western blot assay on Caspase-3 expression in trophoblastic cells; details: mifepristone induced model, Blank = 1.000
Method: as §1
(§2) Extraction of total cellular protein and cytoplasmic protein: The cells 4×10^5 cells/ml were seeded in the 6-well plate. After incubating at 37° C., 5% CO2 for 44 hours, the cells are grouped and treated according to the experiment scheme (see above). Extraction conducted at two treatment points: 24-24 h (treat with agent for 24 hours and continue incubation for 24 hours after removing the agent) and 24-48 h (treat with agent for 24 hours and continue incubation for 48 hours after removing the agent). The assays were conducted as follows:
(§3) At each predetermined time point, discard the culture medium, wash the cells three times with cold PBS solution, 3 min each time. After removing PBS, put the cells on ice. Add lysis buffer, 150 μl per well, and then place the cells on ice for 5 min, scrape the surface cells and transfer the cell lysate to an EP tube. Put the tube on ice for 30 min. After centrifuge (4° C., 12000 rpm/min, 15 min), transfer the supernatant to the EP tube and store it at −20° C. Determine the protein concentration with the BCA method and adjust the protein concentration to the same level. Add 3 μl 5× SDS-PAGE sampling buffer, denature at 100° C. for 5 min, and store the samples at −20° C. for Western Blotting. The Western Blotting procedure was conducted in a standard manner known in the art, description of which is omitted herewith for the sake of brevity.

Caspase-9 = assay: Western blot assay on Caspase-9 expression in trophoblastic cells; details: mifepristone induced model, Blank = 1.000
Method: as §1, §2, §3

Bax = assay: Western blot assay on Bax expression in trophoblastic cells; details: mifepristone induced model, Blank = 1.000
Method: as §1, §2, §3

BcI-2/Bax = assay: Western blot assay on Bcl-2/Bax expression ratio in trophoblastic cells; details: mifepristone induced model, Blank = 1.000
Method: Hyperoside and asperosaponin are individual compounds isolated from herbal medicines cuscuta chinensis and taxillus sutchuenensis, respectively.
as §2, §3

XIAP = assay: Western blot assay on XIAP expression in trophoblastic cells; details: mifepristone induced model, Blank = 1.000
Method: as §1, §2, §3

XIAP mRNA = assay: Quantitative PCR assay on XIAP mRNA; details: ΔΔCt, mifepristone induced model, time point not given
From the text: as §1
(§4) Design of primers: Based on search for the sequence of the target gene mRNA in GenBank, the following primers were designed: […]
(§5) Total RNA extraction: Cells 4×10^5 cells/ml were seeded in the 6-well plate, 1 ml per well, and incubated at 37° C., 5% CO2 for 48 h. Then, the cells were grouped and treated according to the experiment scheme (see above). Extraction was conducted at two time points: 24 h and 24-24 h (24 hours of agent treatment and 24 hours after removing the agent), according to the procedures described as follows:
(§6) Placed the cells in the 1.5 ml EP tube, add Trizol 1 ml, and mix by shaking. Add chloroform 0.2 ml, cover tightly, and shake vigorously for 15 s. Store it at 4° C. for 2-3 min, centrifugal at 4° C., 12000 rpm×15 min. Transfer the supernatant to a new 1.5 ml EP tube, add an equal volume of isopropanol, incubate at 4° C. for 10 min, and centrifuge 4° C., 12000 rpm×10 min. After discarding the supernatant, add 75% ethanol (containing DEPC water) to wash the precipitate once, centrifugal 4° C. 7500 rpm×5 min, and discard ethanol. Air or vacuum dry for 5-10 min (not completely dry), add DEPC water to dissolve RNA, store at −80° C. for further process.
(§7) Reverse transcription: In a sterile 0.2 ml centrifuge tubes, prepare the reaction according to the following:
(§8) Quantitative PCR:experimental design is in accordance with standard ΔΔCt analytical method. The experimental procedure is as follows:
(§9) (2) Prepare reaction mix (performed on ice):
(§10) (3) PCR reaction: using a standard three-step reaction procedure: […]

Bax mRNA = assay: Quantitative PCR assay on Bax mRNA; details: ΔΔCt, mifepristone induced model, time point not given
From the text: as §1, §4, §5, §6, §7, §8, §9, §10

Bcl-2 mRNA = assay: Quantitative PCR assay on Bcl-2 mRNA; details: ΔΔCt, mifepristone induced model, time point not given
From the text: as §1, §4, §5, §6, §7, §8, §9, §10

Bcl-2 mRNA/Bax mRNA = assay: Quantitative PCR assay, Bcl-2 mRNA/Bax mRNA ratio; details: ΔΔCt, mifepristone induced model, time point not given
From the text: as §1, §4, §5, §6, §7, §8, §9, §10

Caspase-3 mRNA = assay: Quantitative PCR assay on Caspase-3 mRNA; details: ΔΔCt, mifepristone induced model, time point not given
From the text: as §1, §4, §5, §6, §7, §8, §9, §10

Caspase-9 mRNA = assay: Quantitative PCR assay on Caspase-9 mRNA; details: ΔΔCt, mifepristone induced model, time point not given
From the text: as §1, §4, §5, §6, §7, §8, §9, §10

| Compound | early stage apoptosis, percentage of cells underwent apoptosis (Annexin V FITC/PI) (trophoblast cells [1]; duration of treatment 24 h) | early stage apoptosis, percentage of cells underwent apoptosis (Annexin V FITC/PI) (trophoblast cells [1]; duration of treatment 48 h) [%] | cell proliferation rate as compared to the Blank (MTT) (trophoblast cells [2]; duration of treatment 24 h) | cell proliferation rate as compared to the Blank (MTT) (trophoblast cells [2]; duration of treatment 48 h) | β-HCG level in cell supernatant (β-HCG) | Caspase-3 expression, relative amount of protein compared with Blank (Caspase-3; 24 h) | Caspase-3 expression, relative amount of protein compared with Blank (Caspase-3; 48 h) | Caspase-9 expression, relative amount of protein compared with Blank (Caspase-9; 24 h) | Caspase-9 expression, relative amount of protein compared with Blank (Caspase-9; 48 h) | Bax expression, relative amount of protein compared with Blank (Bax; 24 h) | Bax expression, relative amount of protein compared with Blank (Bax; 48 h) | BcI-2/Bax expression ratio, relative ratio of the proteins compared with Blank (BcI-2/Bax; 24 h) | BcI-2/Bax expression ratio, relative ratio of the proteins compared with Blank (BcI-2/Bax; 48 h) | XIAP expression, relative amount of protein compared with Blank (XIAP; 24 h) | XIAPmRNA level (XIAP mRNA) | BaxmRNA level (Bax mRNA) | Bcl-2 mRNA level (Bcl-2 mRNA) | Bcl-2 mRNA/BaxmRNA (Bcl-2 mRNA/Bax mRNA) | Caspase-3 mRNA level (Caspase-3 mRNA) | Caspase-9 mRNA level (Caspase-9 mRNA) | also measured |
| --- | --- | --- | --- | --- | --- | --- | --- | --- | --- | --- | --- | --- | --- | --- | --- | --- | --- | --- | --- | --- | --- |
| CC1(C)CC[C@]2(C(=O)O[C@@H]3O[C@H](CO[C@@H]4O[C@H](CO)[C@@H](O)[C@H](O)[C@H]4O)[C@@H](O)[C@H](O)[C@H]3O)CC[C@]3(C)C(=CC[C@@H]4[C@@]5(C)CC[C@H](O[C@@H]6OC[C@H](O)[C@H](O)[C@H]6O)[C@@](C)(CO)[C@@H]5CC[C@]43C)[C@@H]2C1 [Asperosaponin, asperosaponin] | 16.067 ± 2.974 **^ΔΔ % | 15.933 ± 3.742 | 0.787 ± 0.086 | 0.809 ± 0.019 | 0.870 ± 0.026 MIU/ML | 1.372 ± 0.338^Δ | 1.508 ± 0.217*^ΔΔ▴▴□ | 1.962 ± 0.273^Δ | 1.887 ± 0.742 | 1.503 ± 0.180^ΔΔ▾▾ | 1.804 ± 0.558 | 1.905 ± 0.297**^ΔΔ∇∇▴▴ | 1.503 ± 0.454 | 2.127 ± 0.421 | 1.253 ± 1.540 | 3.181 ± 1.576 | 4.908 ± 3.037 | 1.88 ± 1.196 | 2.783 ± 0.541 | 1.240 ± 0.945 | XIAP expression, relative amount of protein compared with Blank (XIAP; 48 h): 1.706 ± 0.492 |
| O=c1c(O[C@@H]2O[C@H](CO)[C@H](O)[C@H](O)[C@H]2O)c(-c2ccc(O)c(O)c2)oc2cc(O)cc(O)c12 [Hyperoside, hyperoside] | 16.367 ± 1.942 **^ΔΔ % | 15.633 ± 2.136 | 0.788 ± 0.072 | 0.869 ± 0.029 | 1.377 ± 0.142 MIU/ML | 1.847 ± 0.123 | 1.648 ± 0.206**^Δ▴ | 2.079 ± 0.267^Δ | 2.221 ± 0.651 | 1.687 ± 0.519*^ΔΔ▴▴▾▾ | 2.544 ± 0.383 | 1.544 ± 0.726^ΔΔ∇∇ | 0.518 ± 0.186 | 1.528 ± 0.317 | 1.315 ± 0.706 | 2.469 ± 1.058^Δ | 2.726 ± 1.419 | 1.470 ± 1.321 | 4.640 ± 1.865^Δ | 3.512 ± 3.828 | XIAP expression, relative amount of protein compared with Blank (XIAP; 48 h): 1.673 ± 0.768 |
| CC(=O)[C@H]1CC[C@H]2[C@@H]3CCC4=CC(=O)CC[C@]4(C)[C@H]3CC[C@]12C [Positive Control, progesterone] | 17.400 ± 1.229 **^ΔΔ % | 16.367 ± 1.447 | 0.805 ± 0.030 | 0.825 ± 0.061 | 1.067 ± 0.038*^Δ MIU/ML | – | – | – | – | – | – | 0.537 ± 0.051 | – | – | 1.037 ± 0.425 | 0.442 ± 0.442^ΔΔ | 2.971 ± 2.839 | 7.351 ± 6.001 | 3.089 ± 1.778^ΔΔ | 1.286 ± 0.780 | – |
